One data set concerns the target T1, human 5-HT1A receptors (Homo sapiens, UniProt P08908).
T1 construct: expressed in transfected cells; host or cells: CHO cells
T1 sequence (P08908 1-422): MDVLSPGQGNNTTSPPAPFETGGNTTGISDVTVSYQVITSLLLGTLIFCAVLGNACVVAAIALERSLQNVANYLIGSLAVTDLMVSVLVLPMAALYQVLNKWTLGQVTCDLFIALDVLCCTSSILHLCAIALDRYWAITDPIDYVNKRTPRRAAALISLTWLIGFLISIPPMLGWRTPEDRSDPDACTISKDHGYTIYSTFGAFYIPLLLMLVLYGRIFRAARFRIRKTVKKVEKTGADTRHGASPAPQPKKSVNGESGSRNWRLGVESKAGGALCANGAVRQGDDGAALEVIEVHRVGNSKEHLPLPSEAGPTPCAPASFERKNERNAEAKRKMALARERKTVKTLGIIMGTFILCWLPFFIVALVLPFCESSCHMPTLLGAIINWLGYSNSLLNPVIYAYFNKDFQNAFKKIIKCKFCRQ
Description: [3H] 8-OHDPAT displacement from 5-HT1A receptor, CHO cells stably transfected with human 5-HT1A receptors. The class given is binding. The settings on record: read-out: 5-HT1A Function KI. An excerpt: High affinity for the serotonin 5-HT1A receptor was established by testing the claimed compound's ability to displace [^3H] 8-OHDPAT (dipropylaminotetralin) from the 5-HT1A serotonin receptor following a modification of the procedure of Hall et al., J. Neurochem. 44, 1685 (1985) which utilizes CHO cells stably transfected with human 5-HT1A receptors.

The target of a further data set is T2, serotonin transporter (Rattus norvegicus, UniProt P31652).
T2 construct: displace ^3H-paroxetine from male rat frontal cortical membranes; from tissue; host or cells: male rat frontal cortex membranes
Description: 3H-paroxetine displacement from male rat frontal cortical membranes (affinity for the serotonin transporter). The class given is binding. The settings on record: read-out: 5-HT Transporter Affinity KI.

The target of data set [1] is T3, cloned human 5-HT1A receptors (Homo sapiens, UniProt P08908).
T3 construct: expressed in transfected cells
T3 sequence (P08908 1-422): T1 sequence (P08908 1-422)
Briefly: 35S-GTPγS binding assay, antagonist activity at 5-HT1A receptors. Format: biochemical. The settings on record: for IC50: potency in reversing the effects of the standard agonist 8-OHDPAT, read-out: 5-HT1A Receptor Affinity IC50 (nM) (Imax): IC50; for Emax: read-out: 5-HT1A Receptor Affinity IC50 (nM) (Imax): Imax. As to the method: Antagonist activity at 5-HT1A receptors was established by using a ^35S-GTPγS binding assay similar to that used by Lazareno and Birdsall (Br. J. Pharmacol. 109: 1120, 1993), in which the test compound's ability to affect the binding of ^35S-GTPγS to membranes containing cloned human 5-HT1A receptors was determined. Agonists produce an increase in binding whereas antagonists produce no increase but rather reverse the effects of the standard agonist 8-OHDPAT. The test compound's maximum inhibitory effect is represented as the Imax, while its potency is defined by the IC50.
A general note: GTPγS is a poorly hydrolysed GTP analogue; its binding reports G protein activation.

[2] abbreviates: value in brackets, maximum inhibitory effect.

Molecules are shown by their SMILES. Where a name gives a salt, the structure may show the parent alone. Read-outs that look alike come from different tables or passages of the source.

T2 sequence (P31652 whole entry): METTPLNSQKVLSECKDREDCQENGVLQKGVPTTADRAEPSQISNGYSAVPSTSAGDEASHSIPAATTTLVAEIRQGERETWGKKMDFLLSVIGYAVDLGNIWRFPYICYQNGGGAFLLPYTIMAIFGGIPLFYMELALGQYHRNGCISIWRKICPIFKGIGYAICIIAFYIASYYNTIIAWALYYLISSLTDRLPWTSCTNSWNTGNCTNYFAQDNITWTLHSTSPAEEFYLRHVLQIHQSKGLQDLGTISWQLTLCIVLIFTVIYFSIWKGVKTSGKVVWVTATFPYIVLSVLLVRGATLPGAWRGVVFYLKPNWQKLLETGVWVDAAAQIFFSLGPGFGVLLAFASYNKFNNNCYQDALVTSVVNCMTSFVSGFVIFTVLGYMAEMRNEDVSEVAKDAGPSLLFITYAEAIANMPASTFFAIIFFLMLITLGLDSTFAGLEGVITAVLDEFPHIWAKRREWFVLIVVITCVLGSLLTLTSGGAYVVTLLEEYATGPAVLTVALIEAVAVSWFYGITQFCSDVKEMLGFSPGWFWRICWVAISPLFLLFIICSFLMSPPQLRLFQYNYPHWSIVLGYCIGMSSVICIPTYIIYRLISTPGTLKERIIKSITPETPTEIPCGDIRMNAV

One may read the melting point as the temperature of the solid-liquid transition. `Cc1ccc2c3c(ccc2n1)OC[C@H](CN1CCC(Cn2ccc4ccc(C#N)cc42)CC1)O3` (as salt: fumarate) [Example 8] returned a melting point of 178 to 180 °C.

The Ki is a dissociation constant, usually derived from enzyme kinetics or from competition with a known ligand. By IC50 is commonly meant the concentration needed to halve the response being measured. Turning to `Cc1ccc2c3c(ccc2n1)OCC(CN1CC(Cc2c[nH]c4ccccc24)C1)O3` (stereo not shown) [Example 4, 2-[3-(1H-Indol-3-ylmethyl)-azetidin-1-ylmethyl]-8-methyl-2,3-dihydro-[1,4]dioxino[2,3-f]quinoline], the Ki came to 9.2 nM at human 5-HT1A receptors and 0.56 nM on serotonin transporter. In addition, in data set [1], the 50% inhibitory concentration (IC50) is 37.2 nM. For the same molecule, the Emax in data set [1] was determined as 76.4%.

Consider `Cc1ccc2c3c(ccc2n1)OCC(CN1CC(CCn2ccc4ccc(F)cc42)C1)O3` (stereo not shown) (as salt: hydrochloride) [Example 10, 2-{3-[2-(6-Fluoro-indol-1-yl)-ethyl]-azetidin-1-ylmethyl}-8-methyl-2,3-dihydro-[1,4]dioxino[2,3-f]quinoline], for which the melting point was 115 °C (dec.).

As to `Cc1ccc2c3c(ccc2n1)OC[C@H](CN1CC(CCn2ccc4ccc(C#N)cc42)C1)O3` [Example 11, 1-{2-[1-(8-Methyl-2,3-dihydro-[1,4]-dioxino[2,3-f]quinolin-2-ylmethyl)-azetinin-3-yl]-ethyl}-1H-indole-6-carbonitrile], the Ki on human 5-HT1A receptors worked out at 1.52 nM; on serotonin transporter it was 2.86 nM. In data set [1], the IC50 came to 251 nM. The Emax in data set [1] (setting [2]) was found to be 85%.

The molecule `Cc1ccc2c3c(ccc2n1)OC[C@H](CN1CC(Cc2cn(C)c4ccc(F)cc24)C1)O3` (as salt: oxalate) [Example 5] had a melting point of 193 to 195 °C.

For the molecule `Cc1ccc2c3c(ccc2n1)OCC(CN1CCCC(Cc2c[nH]c4ccc(F)cc24)C1)O3` (stereo not shown) (as salt: hydrochloride) [Example 2, 2-[3-(5-Fluoro-1H-indol-3-ylmethyl)-piperidin-1-ylmethyl]-8-methyl-2,3-dihydro-[1,4]dioxino[2,3-f]quinoline], the melting point was 68 °C (dec.).

`CCc1ccc2c3c(ccc2n1)OC[C@H](CN1CCC(Cn2ccc4ccc(F)cc42)CC1)O3` (as salt: hydrochloride) [Example 7] showed a melting point of over 250 °C.

Take `Cc1ccc2c3c(ccc2n1)OCC(CN1CC(Cn2ccc4ccc(F)cc42)C1)O3` (stereo not shown) [Example 9, 2-[3-(6-Fluoro-indol-1-ylmethyl)-azetidin-1-ylmethyl]-8-methyl-2,3-dihydro-[1,4]dioxino[2,3-f]quinoline]: the Ki at human 5-HT1A receptors worked out at 55 nM; at serotonin transporter, 0.11 nM.

For the molecule `Cc1ccc2c3c(ccc2n1)OCC(CN1CCCC(Cc2c[nH]c4cc(F)ccc24)C1)O3` (stereo not shown) [Example 3, 2-[3-(6-Fluoro-1H-indol-3-ylmethyl)-piperidin-1-ylmethyl]-8-methyl-2,3-dihydro-[1,4]dioxino[2,3-f]quinoline], the Ki at human 5-HT1A receptors is 3.4 nM; on serotonin transporter, 15.1 nM. Besides, the IC50 in data set [1] worked out at 666 nM. Moreover, the Emax in data set [1] (setting [2]) was determined as 100%.

In the case of `Cc1ccc2c3c(ccc2n1)OC[C@H](CN1CC(Cc2cn(C)c4ccc(F)cc24)C1)O3` [Example 5], the Ki at human 5-HT1A receptors turned out to be 16.7 nM; on serotonin transporter, 0.72 nM. The IC50 in data set [1] came to 34.5 nM. In data set [1] (setting [2]), the Emax amounted to 96.3%.

For the molecule `Cc1ccc2c3c(ccc2n1)OCC(CN1CC(Cc2c[nH]c4ccc(F)cc24)C1)O3` (stereo not shown) [Example 1, 2-[3-(5-Fluoro-1H-indol-3-ylmethyl)-azetidin-1-ylmethyl]-8-methyl-2,3-dihydro-[1,4]dioxino[2,3-f]quinoline], the Ki is 2.5 nM on human 5-HT1A receptors and 1.29 nM on serotonin transporter. Besides, in data set [1], the IC50 turned out to be 59.5 nM. Also, the Emax in data set [1] (setting [2]) came out at 73.7%.

Consider `Cc1ccc2c3c(ccc2n1)OCC(CN1CCCC(Cc2c[nH]c4cc(F)ccc24)C1)O3` (stereo not shown) (as salt: salt) [Example 3, 2-[3-(6-Fluoro-1H-indol-3-ylmethyl)-piperidin-1-ylmethyl]-8-methyl-2,3-dihydro-[1,4]dioxino[2,3-f]quinoline], for which the melting point is 50 °C (dec.).

Take `Cc1ccc2c3c(ccc2n1)OCC(CN1CC(Cn2ccc4ccc(F)cc42)C1)O3` (stereo not shown) (as salt: salt) [Example 9, 2-[3-(6-Fluoro-indol-1-ylmethyl)-azetidin-1-ylmethyl]-8-methyl-2,3-dihydro-[1,4]dioxino[2,3-f]quinoline]: the melting point was 138 °C (dec.).

`Cc1ccc2c3c(ccc2n1)OCC(CN1CC(CCn2ccc4ccc(F)cc42)C1)O3` (stereo not shown) [Example 10, 2-{3-[2-(6-Fluoro-indol-1-yl)-ethyl]-azetidin-1-ylmethyl}-8-methyl-2,3-dihydro-[1,4]dioxino[2,3-f]quinoline]: the Ki on human 5-HT1A receptors came to 1.9 nM; at serotonin transporter, 4.26 nM. Also, in data set [1], the IC50 stood at 343 nM. Further, the Emax in data set [1] (setting [2]) was 80%.

Consider `Cc1ccc2c3c(ccc2n1)OCC(CN1CC(Cc2c[nH]c4ccc(F)cc24)C1)O3` (stereo not shown) (as salt: hydrochloride) [Example 1, 2-[3-(5-Fluoro-1H-indol-3-ylmethyl)-azetidin-1-ylmethyl]-8-methyl-2,3-dihydro-[1,4]dioxino[2,3-f]quinoline], for which the melting point is 125 °C (dec.).

For `Cc1ccc2c3c(ccc2n1)OCC(CN1CCCC(Cc2c[nH]c4ccc(F)cc24)C1)O3` (stereo not shown) [Example 2, 2-[3-(5-Fluoro-1H-indol-3-ylmethyl)-piperidin-1-ylmethyl]-8-methyl-2,3-dihydro-[1,4]dioxino[2,3-f]quinoline], the Ki on human 5-HT1A receptors stood at 3.3 nM; at serotonin transporter, 15.3 nM. For the same molecule, the IC50 in data set [1] is 552 nM. Further, the Emax in data set [1] (setting [2]) worked out at 100%.

In the case of `CCc1ccc2c3c(ccc2n1)OC[C@H](CN1CCC(Cn2ccc4ccc(F)cc42)CC1)O3` [Example 7], the values for the Ki at human 5-HT1A receptors and at serotonin transporter were 15.2 nM and 1.61 nM, respectively. Also, the IC50 in data set [1] was determined as 208 nM. Moreover, the Emax in data set [1] (setting [2]) worked out at 81.5%.

Turning to `Cc1ccc2c3c(ccc2n1)OC[C@H](CN1CC(CCn2ccc4ccc(C#N)cc42)C1)O3` (as salt: hydrochloride) [Example 11, 1-{2-[1-(8-Methyl-2,3-dihydro-[1,4]-dioxino[2,3-f]quinolin-2-ylmethyl)-azetinin-3-yl]-ethyl}-1H-indole-6-carbonitrile], the melting point is 144 °C (dec.).

The molecule `Cc1ccc2c3c(ccc2n1)OC[C@H](CN1CCC(Cn2ccc4ccc(F)cc42)CC1)O3` (as salt: fumarate) [Example 6] gave a melting point of 140 to 142 °C.

As for `Cc1ccc2c3c(ccc2n1)OC[C@H](CN1CCC(Cn2ccc4ccc(C#N)cc42)CC1)O3` [Example 8], the values for the Ki on human 5-HT1A receptors and at serotonin transporter were 6.56 nM and 0.6 nM, respectively. Further, the IC50 in data set [1] came out at 243 nM. Moreover, in data set [1] (setting [2]), the Emax came out at 100%.

On to `Cc1ccc2[nH]cc(CC3CN(C[C@H]4COc5ccc6nc(C)ccc6c5O4)C3)c2c1` [Example 12, 8-Methyl-2-[3-(5-methyl-1H-indol-3-ylmethyl)-azetidin-1-ylmethyl]-2,3-dihydro-[1,4]dioxino[2,3-f]quinoline], for which the Ki at serotonin transporter worked out at 1.04 nM. Further, in data set [1], the IC50 was found to be 38.6 nM. In addition, the Emax in data set [1] (setting [2]) turned out to be 89.5%.

On to `Cc1ccc2c3c(ccc2n1)OC[C@H](CN1CCC(Cn2ccc4ccc(F)cc42)CC1)O3` [Example 6], for which the Ki was determined as 9.55 nM at human 5-HT1A receptors and 1.01 nM at serotonin transporter. In addition, the IC50 in data set [1] worked out at 242 nM. In data set [1] (setting [2]), the Emax is 85.5%.
